Assay results as given in patent US7288555B2 (priority 2001, dated 2007).

Key:
[1] = tested on: vine downy mildew (Plasmopara viticola); settings: in vivo
[2] = tested on: potato blight (Phytophthora infestans); assay type: in vivo; settings: Solanum tuberosum Bintje, infection 48 h after treatment, read after 6 days, 3 repeats, confidence interval in brackets; for ED50 (confidence interval): effective dose providing 50% control; for ED70 (confidence interval): effective dose providing 70% control; for ED90 (confidence interval): effective dose providing 90% control

Row | SMILES | ED50 (confidence interval) [1] | ED70 (confidence interval) [1] | ED50 (confidence interval) [2] | ED70 (confidence interval) [2] | ED90 (confidence interval) [2]
1 | O=C(NCc1ncc(C(F)(F)F)cc1Cl)c1c(Cl)cccc1Cl [Compound A, 2,6-dichloro-N-{[3-chloro-5-(trifluoromethyl)-2-pyridinyl]methyl}benzamide] | 6.6 (4-10.9) mg/l | 12.5 (8-19.6) mg/l | 19.9 (12-33) mg/l | 43.5 (24.5-77.2) mg/l | 151.2 (61.5-371.8) mg/l
2 | Cc1ccc(C(C)NC(=O)[C@@H](NC(=O)OC(C)C)C(C)C)cc1 (stereo partly shown) [Compound B, iprovalicarb] | 7.3 (4.9-11) mg/l | 17.5 (11.8-25.9) mg/l | 27.8 (18.3-42.2) mg/l | 69.3 (43.7-109.9) mg/l | 296.6 (136.2-646) mg/l
